Measurements published in ChEMBL document CHEMBL4699487, “Discovery of ONO-8590580: A novel, potent and selective GABA α negative allosteric modulator for the treatment of cognitive disorders” (Bioorg Med Chem Lett, 2020).

Key:
[1] = AUC infinity in rat at 3 mg/kg, po; format: ADME, organism-based; parameters: time infinity, route oral, dose 3 mg/kg; details: in vivo
[2] = Apparent permeability in MDCK-MDR1 cells; format: ADME, cell-based, Canis lupus familiaris; details: dog
[3] = Volume of distribution at steady state in rat at […], iv; format: ADME, organism-based; details: in vivo, dose 0.44 mg/kg, read-out: Vdss
[4] = AUC infinity in rat at […], iv; format: ADME, organism-based; parameters: route intravenous, time infinity, dose 0.44 mg/kg; details: in vivo
[5] = Cmax in rat at 3 mg/kg, po; format: ADME, organism-based; parameters: route oral, dose 3 mg/kg; details: in vivo
[6] = Oral bioavailability in rat at 3 mg/kg; format: ADME, organism-based; details: in vivo
[7] = Cmax in rat at […], iv; format: ADME, organism-based; parameters: route intravenous, dose 0.44 mg/kg; details: in vivo

- AUC(0-inf) [1]: 1.78 µg·h/mL
- Papp [2]: 470 nm/s
- Vd [3]: 1.7 L/kg
- AUC(0-inf) [4]: 0.4 µg·h/mL
- Cmax [5]: 0.52 µg/mL
- bioavailability [6]: 65%
- Cmax [7]: 0.278 µg/mL
SMILES: Cc1c(F)c(Nc2ccc(-c3cn(C)cn3)cn2)cc2c1ncn2CC1CC1
